{
  "source": "patent US8207206B2",
  "about": "“(S,R)-3-phenyl-4,5 dihydro-5-isoxazole acetic acid-nitric oxide and use thereof as anti-cancer and antiviral agent” (OncoNOx APS, priority 2007, dated 2012)",
  "key": {"C6 cells [1]": {"system": "C6 cells", "experiment": "CFSE staining, tumor cell proliferation rate (flow cytometry)", "assay_type": "cell-based, rat", "details": "C6, GIT27-NO 25 μg/ml, after 48 h; control 8.37%", "procedure": "The cells were seeded in flat-bottom 96-well plates (10^4 cells/well) in a final volume of 200 μl of culture medium, incubated overnight, then treated with different concentrations of the test compound. After 24 h incubation, cell viability was assessed using 3-4,5-dimethylthiazol-2-yl)-2,5-diphenyltetrazolium bromide (MTT) test, based on the mitochondrial-dependent reduction of MTT to formazan, or by crystal violet (CV) staining of adherent cells, as previously described (Mijatovic et al CMLS 2004). The results are presented as % of control values obtained in untreated cultures. The rate of cell proliferation was also determined using flow cytometric analysis of cells labeled with CFSE (Kang 2005). The cells were detached, added with 1.5 μM CFSE and allowed to stand for 15 min at 37° C., then washed twice and seeded in 6-well plates at 2×10^5. The cells were treated with the compound for 24 and 48 h, trypsinized and washed twice. Finally, the cells were resuspended in PBS and analyzed by flow cytometry. Green fluorescence emission from cells illuminated with excitation light of 488 nm was measured with a FACS Calibur (BD, Heidelberg, Germany) and analyzed using the CellQuest software."}, "C6 cells [2]": {"system": "C6 cells", "experiment": "Autophagy detection by acridin orange staining (flow cytometry)", "assay_type": "cell-based, rat", "details": "C6, 25 μg/ml, 24 h", "procedure": "(§1) As a marker of necrotic cell death, the release of intracellular enzyme LDH, which mediates the conversion 2,4-dinitrophenylhydrazine into visible hydrazone precipitate in the presence of pyruvate, was measured. The cells were seeded in flat-bottom 96-well plates as indicated above and the assay was performed after 24 h incubation, as previously described (Decker et al). The percentage of dead cells was determined using the following formula: [(E−C)/(T−C)]×100, wherein E is the experimental absorbance of treated cultures measured at 492 nm, C is the absorbance of supernatants of control untreated cells, and T is the absorbance corresponding to the maximal (100%) LDH release of Triton-lysed cells. Cell cycle analysis and apoptosis detection were carried out exactly as described in the literature (Mijatovic CMLS 2005). Acidic vesicular organelles, which characterise autophagy, are stained by vital dye acridin orange. The intensity of red fluorescence is proportional to the acidity and volume of the organelles, while the cytoplasm and nucleolus emits bright green and dim red (Kanzawa 2004). […] Green (510-530 nm) and red (>650 nm) fluorescence emission from 10^4 cells illuminated with blue (488 nm) excitation light was measured with a FACS Calibur and analyzed using CellQuest software."}, "C6 cells [3]": {"system": "C6 cells", "experiment": "Cell cycle analysis and apoptosis detection (PI staining, flow cytometry)", "assay_type": "cell-based, rat", "details": "C6, 25 μg/ml, 24 h", "procedure": "as §1"}, "B16 cells": {"system": "B16 cells", "experiment": "LDH release assay (cell death)", "assay_type": "cell-based, mouse", "details": "B16, dose-dependent (24 h) and time-dependent (25 μg/ml), significant after 18 h", "procedure": "As a marker of necrotic cell death, the release of intracellular enzyme LDH, which mediates the conversion 2,4-dinitrophenylhydrazine into visible hydrazone precipitate in the presence of pyruvate, was measured. […] The percentage of dead cells was determined using the following formula: [(E−C)/(T−C)]×100, wherein E is the experimental absorbance of treated cultures measured at 492 nm, C is the absorbance of supernatants of control untreated cells, and T is the absorbance corresponding to the maximal (100%) LDH release of Triton-lysed cells. Cell cycle analysis and apoptosis detection were carried out exactly as described in the literature (Mijatovic CMLS 2005). Acidic vesicular organelles, which characterise autophagy, are stained by vital dye acridin orange. The intensity of red fluorescence is proportional to the acidity and volume of the organelles, while the cytoplasm and nucleolus emits bright green and dim red (Kanzawa 2004). For the detection of autophagy the cells were cultivated in 6-well plates as previously described, detached and stained with 1 μg/ml acridin orange for 15 min at RT. At the end of the incubation period the cells were washed and finally resuspended in PBS. Green (510-530 nm) and red (>650 nm) fluorescence emission from 10^4 cells illuminated with blue (488 nm) excitation light was measured with a FACS Calibur and analyzed using CellQuest software."}, "B16 melanoma": {"system": "B16 melanoma", "experiment": "B16 melanoma in C57BL/6 mice, treatment with GIT27-NO", "assay_type": "in vivo", "procedure": "Primary tumors were induced by subcutaneous (s.c) injection of 2×10^5 B16 melanoma cells in the dorsal right lumbosacral region of syngeneic C57BL/6 mice. […] GIT27-NO was prepared immediately before treatment and was applied i.p. at a dose of 0.5 mg/mouse for 14 consecutive days. The animals were observed until day 30, then sacrificed and tumor growth was determined by three-dimensional measurements of individual tumors from each mouse. Tumor volume was calculated using the following formula: [0.52×a×b^2], where a is the longest and b is the shortest diameter (Smagur et al)."}},
  "data": [
    {"smiles": "N#Cc1c(COC(=O)CC2CC(c3ccccc3)=NO2)no[n+]1[O-]", "note": "(racemic) [GIT27-NO, (S,R)-3-phenyl-4,5 dihydro-5-isoxazole acetic acid-nitric oxide]", "values": [
      {"measurement": "CFSE R1 = parent population", "setting": "C6 cells [1]", "value": 42.53, "unit": "%"},
      {"measurement": "acidic autophagic vesicles (red fluorescence of acridin orange)", "setting": "C6 cells [2]", "value": "significantly increased the intensity of bright red fluorescence"},
      {"measurement": "cell cycle effect", "setting": "C6 cells [3]", "value": "cell cycle arrest in G0/G1 phase"},
      {"measurement": "percentage of cells in subG compartment (hypodiploid cells)", "setting": "C6 cells [3]", "value": "< 10", "unit": "%"},
      {"measurement": "LDH release", "setting": "B16 cells", "value": "induced LDH release"},
      {"measurement": "tumor growth compared to untreated control animals", "setting": "B16 melanoma; B16 melanoma, 0.5 mg/mouse/day from day 10", "value": "significant reduction of tumor growth"},
      {"measurement": "survival during follow-up period", "setting": "B16 melanoma; B16 melanoma, 30 days follow-up, 2 animals died in control group", "value": "survived 30 days"},
      {"measurement": "Mean tumor volume", "setting": "B16 melanoma; s.c. B16 melanoma, i.p. 0.5 mg/mouse/day from day 10, measured 30 days after implantation, control 2.97 ± 6.4, p < 0.05", "value": "0.82 ± 1.2"}
    ]}
  ]
}
